Each structure is given as a SMILES string.

The target in one assay is AMPK. Description: AMPK activation, enzyme-linked immunosorbent assay. Type of assay: biochemical. The conditions noted are these: compounds of Table 1 (Table 6).
Broadly, the EC50 is the midpoint of the concentration-response curve. A higher EC50 goes with a less potent agent. Compound `O=S(=O)(NC1CCN(Cc2ccncc2)CC1)c1ccc(OC2CCN(c3ccc(C(F)(F)F)cc3)CC2)nc1` [1-51, N-(1-(pyridin-4-ylmethyl)piperidin-4-yl)-6-(1-(4-(trifluoromethyl)phenyl)piperidin-4-yloxy)pyridine-3-sulfonamide] had an EC50 of 100 to 500 nM.
The compound `N#Cc1ccc(CN2CC(NC(=O)c3ccc(OC4CCN(c5ccc(C(F)(F)F)cc5)CC4)cn3)C2)cc1` [1-41, N-(1-(4-cyanobenzyl)azetidin-3-yl)-5-(1-(4 (trifluoromethyl)phenyl)piperidin-4-yloxy)picolinamide] yielded an EC50 of 100 to 500 nM.
With `O=C(N[C@H]1CCNC1)c1cc2cc(OC3CCN(Cc4ccc(Cl)cc4)CC3)ccc2o1` [1-128, (S)-5-(1-(4-chlorobenzyl)piperidin-4-yloxy)-N-(pyrrolidin-3-yl)benzofuran-2-carboxamide], the EC50 is above 10000 nM.
With `CC(C)(C)OC(=O)N1CC[C@@H](NC(=O)c2ccc(OC3CCN(c4ccc(C(F)(F)F)cc4)CC3)cn2)C1` [1-23, (R)-tert-butyl 3-(5-(1-(4-(trifluoromethyl)phenyl)piperidin-4-yloxy)picolinamido)pyrrolidine-1-carboxylate], the EC50 is 100 to 500 nM.
`O=C(NC1CCN(Cc2cccnc2)CC1)c1cc2cc(OC3CCN(c4ccc(C(F)(F)F)cc4)CC3)ccc2o1` [1-101, N-(1-(pyridin-3-ylmethyl)piperidin-4-yl)-5-(1-(4-(trifluoromethyl)phenyl)piperidin-4-yloxy)benzofuran-2-carboxamide] showed an EC50 below 100 nM.
Take `CC(C)(C)OC(=O)N1CCC(NC(=O)c2ccc(OC3CCN(c4ccc(C(F)(F)F)cc4)CC3)nc2)CC1` [1-9, tert-butyl 4-(6-(1-(4-(trifluoromethyl)phenyl)piperidin-4-yloxy)nicotinamido)piperidine-1-carboxylate]: the EC50 lay within 100 to 500 nM.
Same read-out and setting: next, `CC(C)(C)OC(=O)N1CCC(NC2CCc3cc(OC4CCN(c5ccc(C(F)(F)F)cc5)CC4)ccc32)CC1` (centres unmarked) [1-156, tert-butyl 4-(5-(1-(4-(trifluoromethyl)phenyl)piperidin-4-yloxy)-2,3-dihydro-1H-inden-1-ylamino)piperidine-1-carboxylate]: 100 to 500 nM; `CN(C(=O)c1cc2cc(OC3CCN(c4ccc(C(F)(F)F)cc4)CC3)ccc2o1)C1CCN(C(=O)OC(C)(C)C)CC1` [1-102, tert-butyl 4-(N-methyl-5-(1-(4-(trifluoromethyl)phenyl)piperidin-4-yloxy)benzofuran-2-carboxamido)piperidine-1-carboxylate]: 1000 to 5000 nM.
Same read-out and setting: then `CC(C)(C)OC(=O)N1CCC(NC(=O)c2cc3ccc(OC4CCN(c5ccc(C(F)(F)F)cc5)CC4)cc3s2)CC1` [1-140, tert-butyl 4-(6-(1-(4-(trifluoromethyl)phenyl)piperidin-4-yloxy)benzo[b]thiophene-2-carboxamido)piperidine-1-carboxylate], with 500 to 1000 nM; and `O=C(NC1CCN(Cc2ccncc2)CC1)c1cc2cc(OC3CCN(Cc4ccc(Cl)cc4)CC3)ccc2o1` [1-77, 5-(1-(4-chlorobenzyl)piperidin-4-yloxy)-N-(1-(pyridin-4-ylmethyl)piperidin-4-yl)benzofuran-2-carboxamide], with 100 to 500 nM.
Same read-out and setting: next, `O=C(NC1CCN(Cc2ccncc2)CC1)c1cc(OC2CCN(c3ccc(C(F)(F)F)cc3)CC2)ccn1` [1-13, N-(1-(pyridin-4-ylmethyl)piperidin-4-yl)-4-(1-(4-(trifluoromethyl)phenyl)piperidin-4-yloxy)picolinamide]: 100 to 500 nM.
`O=C(NC1CCNCC1)c1ccnc(OC2CCN(c3ccc(C(F)(F)F)cc3)CC2)c1` [1-19, N-(piperidin-4-yl)-2-(1-(4-(trifluoromethyl)phenyl)piperidin-4-yloxy)isonicotinamide] yielded an EC50 of 1000 to 5000 nM.

The assay is the same for the next values; noted with them: compounds of Table 2 (Table 7).
As for `O=C(NC1CCN(S(=O)(=O)c2ccc(Cl)cc2)CC1)c1ccc2[nH]c3c(c2c1)CN(Cc1ccc(C(F)(F)F)cc1)CC3` [2-32, N-(1-(4-chlorophenyl-sulfonyl)piperidin-4-yl)-2-(4-(trifluoro-methyl)benzyl)-2,3,4,5-tetrahydro-1H-pyrido [4,3-b]indole-8-carboxamide], the EC50 is 1000 to 5000 nM.
`O=C(NC1CCN(Cc2ccccc2)CC1)c1ccc2[nH]c3c(c2c1)CN(C(=O)OCc1ccccc1)CC3` [2-2, benzyl 8-(1-(4-benzyl)piperidin-4-ylcarbamoyl)-3,4-dihydro-1H-pyrido[4,3-b]indole-2(5H)-carboxylate] returned an EC50 of 10000 to 50000 nM.
Regarding `O=C(NC1CCN(C(=O)c2ccc(F)cc2)CC1)c1ccc2[nH]c3c(c2c1)CN(c1ccc(F)cc1)CC3` [2-39, N-(1-(4-fluorobenzoyl)piperidin-4-yl)-2-(4-fluorophenyl)-2,3,4,5-tetrahydro-1H-pyrido[4,3-b]indole-8-carboxamide], the EC50 fell in the range of 10000 to 50000 nM.
As to `N#Cc1ccc(CN2CCC(NC(=O)c3ccc4[nH]c5c(c4c3)CN(Cc3ccccc3)CC5)CC2)cc1` [2-4, 2-benzyl-N-(1-(4-cyanobenzyl)piperidin-4-yl)-2,3,4,5-tetrahydro-1H-pyrido[4,3-b]indole-8-carboxamide], the EC50 was 1000 to 5000 nM.
The compound `O=C(NC1CCN(Cc2cocn2)CC1)c1ccc2[nH]c3c(c2c1)CN(Cc1ccc(C(F)(F)F)cc1)CC3` [2-54, N-(1-(oxazol-4-ylmethyl)piperidin-4-yl)-2-(4-(trifluoromethyl)benzyl)-2,3,4,5-tetrahydro-1H-pyrido [4,3-b]indole-8-carboxamide] gave an EC50 below 500 nM.
For the compound `N#Cc1ccc(CN2CCC(NC(=O)c3ccc4[nH]c5c(c4c3)CN(Cc3ccc(C(N)=O)cc3)CC5)CC2)cc1` [2-44, 2-(4-carbamoylbenzyl)-N-(1-(4-cyanobenzyl)piperidin-4-yl)-2,3,4,5-tetrahydro-1H-pyrido [4,3-b]indole-8-carboxamide], the EC50 fell in the range of 10000 to 50000 nM.

Still in this assay, the particulars now being: compounds of Table 3 (Table 8).
In the case of `N#Cc1ccc(CN2CCC(NC(=O)c3ccc(C(=O)NC4CCN(Cc5ccccc5)CC4)cc3)CC2)cc1` [3-33, N^1-(1-benzylpiperidin-4-yl)-N^4-(1-(4-cyanobenzyl)piperidin-4-yl)terephthalamide], the concentration for a half-maximal effect (EC50) lay within 10000 to 100000 nM.
The same measure, in the same setting: next, `N#Cc1ccc(CN2CCC(NC(=O)c3cnc(OC4CCN(Cc5ccc(C(F)(F)F)cc5)CC4)s3)CC2)cc1` [3-25, N-(1-(4-cyanobenzyl)piperidin-4-yl)-2-(1-(4-(trifluoromethyl)benzyl)piperidin-4-yloxy)thiazole-5-carboxamide]: below 100 nM.
`O=C(NC1CCN(Cc2ccncc2)CC1)c1cn2ccc(OC3CCN(c4ccc(C(F)(F)F)cc4)CC3)cc2n1` [3-17, N-(1-(pyridin-4-ylmethyl)piperidin-4-yl)-7-(1-(4-(trifluoromethyl)phenyl)piperidin-4-yloxy)imidazo[1,2-a]pyridine-2-carboxamide] gave an EC50 below 100 nM.

Staying with this assay, now noted: compounds of Table 5 (Table 10).
The compound `CC(C)(C)OC(=O)N1CCC(Oc2ccc(C(=O)NC3CCN(Cc4ccccc4)CC3)cc2Cl)CC1` [5-90, tert-butyl 4-(4-(1-benzylpiperidin-4-ylcarbamoyl)-2-chlorophenoxy)piperidine-1-carboxylate] had an EC50 of 1000 to 10000 nM.
The same measure, in the same setting: then `O=C(NC1CCN(Cc2ccc(F)cc2)CC1)c1ccc(OC2CCN(c3ccc(C(F)(F)F)cc3)CC2)c(F)c1` [5-27, 3-fluoro-N-(1-(4-fluorobenzyl)piperidin-4-yl)-4-(1-(4-(trifluoromethyl)phenyl)piperidin-4-yloxy)benzamide], with below 1000 nM.

(Values after patent US9511058B2, “Methods for using carboxamide, sulfonamide and amine compounds” (Rigel Pharmaceuticals, Inc., priority 2010, dated 2016).)
